Data on 20 molecules can be found in patent US20150087627A1, “COMBINATION OF KINASE INHIBITORS AND USES THEREOF” (Intellikine LLC, priority 2011, published 2015).

Common to all, as to type: biochemical
The target of one test is T1, PI3K α (p110α/p85α) (Homo sapiens, UniProt P42336).
T1 construct: purchased Upstate / Millipore Corporation
Put plainly: PI 3-Kinase (human) HTRF assay, PI3K α. Conditions: read-out: PI3K α IC50. For orientation: In TR-FRET formats the signal depends on donor and acceptor labels being close together.

Another test concerns the target T2, PI3K δ (Homo sapiens, UniProt O00329).
T2 construct: purchased Upstate / Millipore Corporation
Description: PI 3-Kinase (human) HTRF assay, PI3K δ. Conditions: read-out: PI3K δ IC50.

In the next test the target is T3, PI3K β (p110β/p85α) (Homo sapiens, UniProt P42338).
T3 construct: purchased Upstate / Millipore Corporation
Description: PI 3-Kinase (human) HTRF assay, PI3K β. Conditions: read-out: PI3K β IC50.

For another test, the target named is T4, PI3K γ (p110γ) (Homo sapiens, UniProt P48736).
T4 construct: purchased Upstate / Millipore Corporation
Description: PI 3-Kinase (human) HTRF assay, PI3K γ. Conditions: read-out: PI3K γ IC50.

Molecules are shown by their SMILES. Like-named read-outs stand apart in the source and are kept apart here. A value given as a limit tells only on which side of the number the result lay.

The term IC50 denotes the concentration that gives 50% inhibition.

T1 sequence (P42336 whole entry): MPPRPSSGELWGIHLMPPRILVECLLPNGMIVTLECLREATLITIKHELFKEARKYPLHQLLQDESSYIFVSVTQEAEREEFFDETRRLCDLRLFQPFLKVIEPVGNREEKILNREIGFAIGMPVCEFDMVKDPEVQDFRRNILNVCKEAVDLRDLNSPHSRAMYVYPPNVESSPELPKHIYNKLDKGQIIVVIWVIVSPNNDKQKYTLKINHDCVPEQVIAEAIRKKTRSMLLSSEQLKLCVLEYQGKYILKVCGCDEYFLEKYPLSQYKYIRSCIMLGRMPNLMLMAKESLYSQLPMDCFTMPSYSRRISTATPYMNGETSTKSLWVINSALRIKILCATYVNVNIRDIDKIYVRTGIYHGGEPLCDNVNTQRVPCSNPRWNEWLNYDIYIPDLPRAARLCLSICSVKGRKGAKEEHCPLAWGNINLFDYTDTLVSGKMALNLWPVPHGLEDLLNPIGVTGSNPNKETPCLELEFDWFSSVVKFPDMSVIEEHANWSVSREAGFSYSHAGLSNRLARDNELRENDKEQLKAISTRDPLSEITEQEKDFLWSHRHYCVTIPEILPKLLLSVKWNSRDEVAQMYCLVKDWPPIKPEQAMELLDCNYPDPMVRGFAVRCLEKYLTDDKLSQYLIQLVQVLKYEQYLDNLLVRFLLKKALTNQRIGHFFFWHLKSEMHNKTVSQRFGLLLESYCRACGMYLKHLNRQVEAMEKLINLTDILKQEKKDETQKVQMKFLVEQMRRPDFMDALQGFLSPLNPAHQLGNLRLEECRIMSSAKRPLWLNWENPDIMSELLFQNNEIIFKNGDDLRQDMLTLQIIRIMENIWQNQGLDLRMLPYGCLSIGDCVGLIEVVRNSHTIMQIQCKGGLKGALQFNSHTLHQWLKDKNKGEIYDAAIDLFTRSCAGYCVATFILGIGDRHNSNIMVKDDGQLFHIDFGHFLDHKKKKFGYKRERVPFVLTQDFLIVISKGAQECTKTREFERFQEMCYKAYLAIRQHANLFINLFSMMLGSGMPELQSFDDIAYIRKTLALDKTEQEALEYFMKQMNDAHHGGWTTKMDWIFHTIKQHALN
T1 sequence (P27986 whole entry partner): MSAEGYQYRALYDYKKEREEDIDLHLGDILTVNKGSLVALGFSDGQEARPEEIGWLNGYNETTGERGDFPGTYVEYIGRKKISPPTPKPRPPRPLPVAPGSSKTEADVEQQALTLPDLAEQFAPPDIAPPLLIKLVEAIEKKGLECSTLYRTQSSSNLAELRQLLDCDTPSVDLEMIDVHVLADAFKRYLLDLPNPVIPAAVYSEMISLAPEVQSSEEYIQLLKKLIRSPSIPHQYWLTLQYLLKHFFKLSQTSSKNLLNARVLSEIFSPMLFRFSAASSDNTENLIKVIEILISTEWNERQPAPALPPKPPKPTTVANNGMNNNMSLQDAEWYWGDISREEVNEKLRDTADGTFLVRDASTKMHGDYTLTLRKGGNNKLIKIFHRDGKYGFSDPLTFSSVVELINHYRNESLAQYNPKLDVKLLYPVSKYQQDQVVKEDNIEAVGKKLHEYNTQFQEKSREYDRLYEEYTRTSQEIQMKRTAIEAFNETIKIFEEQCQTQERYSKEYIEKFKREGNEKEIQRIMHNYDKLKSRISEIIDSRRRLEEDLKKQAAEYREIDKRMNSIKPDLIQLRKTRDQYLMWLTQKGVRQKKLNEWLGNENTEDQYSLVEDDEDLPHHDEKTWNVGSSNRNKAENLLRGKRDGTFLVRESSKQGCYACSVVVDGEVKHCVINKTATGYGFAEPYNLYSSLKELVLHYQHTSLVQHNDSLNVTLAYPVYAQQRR
T4 sequence (P48736 whole entry): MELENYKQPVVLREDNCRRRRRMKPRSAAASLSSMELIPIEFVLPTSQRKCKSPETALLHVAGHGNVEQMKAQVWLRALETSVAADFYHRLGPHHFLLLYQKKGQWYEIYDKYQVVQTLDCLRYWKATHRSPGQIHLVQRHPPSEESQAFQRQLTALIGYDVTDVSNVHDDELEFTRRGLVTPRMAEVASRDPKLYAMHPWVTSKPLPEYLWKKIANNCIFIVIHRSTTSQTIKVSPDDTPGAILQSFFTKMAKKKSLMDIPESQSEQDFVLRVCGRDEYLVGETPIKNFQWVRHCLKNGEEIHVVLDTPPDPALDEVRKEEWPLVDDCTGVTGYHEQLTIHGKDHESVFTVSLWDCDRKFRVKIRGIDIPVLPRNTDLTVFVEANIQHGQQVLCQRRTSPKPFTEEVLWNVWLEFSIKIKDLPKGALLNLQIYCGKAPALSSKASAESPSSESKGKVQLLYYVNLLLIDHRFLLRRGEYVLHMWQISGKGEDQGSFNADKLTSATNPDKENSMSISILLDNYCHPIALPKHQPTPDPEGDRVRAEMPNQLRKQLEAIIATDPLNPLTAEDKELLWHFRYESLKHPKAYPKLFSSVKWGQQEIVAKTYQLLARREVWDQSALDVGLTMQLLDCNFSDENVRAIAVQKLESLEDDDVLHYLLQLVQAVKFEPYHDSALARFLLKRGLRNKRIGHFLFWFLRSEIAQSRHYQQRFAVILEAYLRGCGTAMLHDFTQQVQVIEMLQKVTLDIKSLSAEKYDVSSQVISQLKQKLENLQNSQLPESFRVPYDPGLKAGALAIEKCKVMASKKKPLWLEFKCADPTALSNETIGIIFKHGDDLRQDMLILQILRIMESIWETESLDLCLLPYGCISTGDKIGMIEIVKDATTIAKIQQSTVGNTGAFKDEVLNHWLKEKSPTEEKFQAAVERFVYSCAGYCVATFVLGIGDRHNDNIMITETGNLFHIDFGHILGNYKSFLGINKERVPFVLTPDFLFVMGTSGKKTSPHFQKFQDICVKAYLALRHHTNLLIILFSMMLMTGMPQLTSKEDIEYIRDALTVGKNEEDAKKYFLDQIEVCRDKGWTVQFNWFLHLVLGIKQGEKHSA
T2 sequence (O00329 whole entry): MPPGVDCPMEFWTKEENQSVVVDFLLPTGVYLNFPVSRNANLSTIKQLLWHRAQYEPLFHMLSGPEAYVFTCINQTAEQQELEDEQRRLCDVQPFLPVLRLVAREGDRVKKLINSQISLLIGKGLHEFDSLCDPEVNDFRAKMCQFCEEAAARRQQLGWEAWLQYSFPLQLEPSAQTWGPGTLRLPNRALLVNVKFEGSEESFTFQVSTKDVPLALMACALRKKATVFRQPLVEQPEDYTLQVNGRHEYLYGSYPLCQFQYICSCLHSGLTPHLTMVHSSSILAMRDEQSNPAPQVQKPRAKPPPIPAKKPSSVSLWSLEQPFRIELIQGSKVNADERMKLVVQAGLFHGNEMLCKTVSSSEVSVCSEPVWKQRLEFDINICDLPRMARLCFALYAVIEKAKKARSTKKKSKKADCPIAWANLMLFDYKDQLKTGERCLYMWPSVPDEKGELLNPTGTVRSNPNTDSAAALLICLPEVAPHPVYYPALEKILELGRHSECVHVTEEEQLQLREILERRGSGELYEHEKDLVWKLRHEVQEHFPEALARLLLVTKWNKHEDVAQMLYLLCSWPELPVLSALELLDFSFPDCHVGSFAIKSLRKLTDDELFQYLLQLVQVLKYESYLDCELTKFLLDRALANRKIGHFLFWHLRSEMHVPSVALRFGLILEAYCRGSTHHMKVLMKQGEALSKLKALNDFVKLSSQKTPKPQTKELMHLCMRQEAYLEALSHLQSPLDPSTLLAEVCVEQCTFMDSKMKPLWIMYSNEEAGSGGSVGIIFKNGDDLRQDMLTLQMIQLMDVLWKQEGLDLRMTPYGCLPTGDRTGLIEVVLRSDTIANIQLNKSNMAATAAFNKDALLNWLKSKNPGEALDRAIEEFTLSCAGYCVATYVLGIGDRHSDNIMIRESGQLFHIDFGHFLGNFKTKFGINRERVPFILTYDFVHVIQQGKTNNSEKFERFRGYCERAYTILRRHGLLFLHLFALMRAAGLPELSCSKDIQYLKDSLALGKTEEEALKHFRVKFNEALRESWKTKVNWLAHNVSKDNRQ
T2 sequence (P27986 whole entry partner): as the sequence (P27986 whole entry partner) above
T3 sequence (P42338 whole entry): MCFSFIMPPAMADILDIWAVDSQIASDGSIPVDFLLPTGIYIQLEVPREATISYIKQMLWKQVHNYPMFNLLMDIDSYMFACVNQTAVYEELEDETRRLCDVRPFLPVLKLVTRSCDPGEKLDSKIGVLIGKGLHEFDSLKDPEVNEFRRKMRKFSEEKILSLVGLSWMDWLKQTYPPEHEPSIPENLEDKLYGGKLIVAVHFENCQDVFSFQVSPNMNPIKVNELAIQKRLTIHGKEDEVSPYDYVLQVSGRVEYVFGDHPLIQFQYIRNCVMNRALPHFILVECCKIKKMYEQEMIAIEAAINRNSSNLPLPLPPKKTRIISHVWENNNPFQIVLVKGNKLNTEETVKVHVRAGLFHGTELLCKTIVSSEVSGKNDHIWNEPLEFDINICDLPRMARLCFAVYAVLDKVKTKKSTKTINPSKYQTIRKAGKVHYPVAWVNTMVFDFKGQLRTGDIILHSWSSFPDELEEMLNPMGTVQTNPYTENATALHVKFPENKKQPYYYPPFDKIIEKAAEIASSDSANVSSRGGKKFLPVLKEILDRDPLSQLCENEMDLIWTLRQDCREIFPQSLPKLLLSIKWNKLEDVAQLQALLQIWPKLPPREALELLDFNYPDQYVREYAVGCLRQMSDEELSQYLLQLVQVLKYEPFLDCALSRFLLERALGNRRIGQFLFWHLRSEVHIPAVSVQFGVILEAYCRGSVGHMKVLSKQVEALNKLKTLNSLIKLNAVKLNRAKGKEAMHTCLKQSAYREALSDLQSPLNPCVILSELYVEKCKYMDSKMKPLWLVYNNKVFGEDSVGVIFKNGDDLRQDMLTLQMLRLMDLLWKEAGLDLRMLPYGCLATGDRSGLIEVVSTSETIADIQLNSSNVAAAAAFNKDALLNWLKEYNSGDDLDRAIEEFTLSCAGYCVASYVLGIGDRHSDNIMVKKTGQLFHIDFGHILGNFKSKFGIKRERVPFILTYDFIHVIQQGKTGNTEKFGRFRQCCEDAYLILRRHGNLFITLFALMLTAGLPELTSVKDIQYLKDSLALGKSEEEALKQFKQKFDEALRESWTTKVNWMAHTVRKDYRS
T3 sequence (P27986 whole entry partner): as the sequence (P27986 whole entry partner) above

For the molecule `Nc1nc2cc(-c3ccc4ncc(-c5ccncc5)nc4c3)ccc2o1` [Compound 71], the IC50 at PI3K α (p110α/p85α) was under 0.1 µM; at PI3K δ, under 1 µM; at PI3K β (p110β/p85α) it was under 10 µM; at PI3K γ (p110γ), under 0.1 µM.
For the molecule `CCN1CCC(n2cnc3ccc(-c4ccc5oc(N)nc5c4)cc3c2=O)CC1` [Compound 73], the half-inhibitory concentration (IC50) at PI3K α (p110α/p85α) is under 1 µM; at PI3K δ, over 10 µM; on PI3K β (p110β/p85α), under 10 µM; on PI3K γ (p110γ) it was over 10 µM.
Regarding `CN1CCN(c2nc3cc(-c4ccc5oc(N)nc5c4)ccc3c(=O)n2C)CC1` [Compound 79], the IC50 on PI3K α (p110α/p85α) is under 10 µM; at PI3K δ, over 10 µM; on PI3K β (p110β/p85α) it was over 10 µM; on PI3K γ (p110γ) it was over 10 µM.
For `Cn1c(N2CCOCC2)nc2cc(-c3ccc4oc(N)nc4c3)ccc2c1=O` [Compound 80], the IC50 at PI3K α (p110α/p85α) was under 1 µM; on PI3K δ, over 10 µM; at PI3K β (p110β/p85α), over 10 µM; on PI3K γ (p110γ), over 10 µM.
With `CN1CCC(Nc2cnc3ccc(-c4ccc5oc(N)nc5c4)cc3n2)CC1` [Compound 81], the IC50 on PI3K α (p110α/p85α) was under 0.1 µM; on PI3K δ it was under 0.1 µM; on PI3K β (p110β/p85α) it was under 1 µM; on PI3K γ (p110γ), under 1 µM.
With `CC(=O)N1CCC(Nc2cnc3ccc(-c4ccc5oc(N)nc5c4)cc3n2)CC1` [Compound 82], the IC50 at PI3K α (p110α/p85α) was under 0.1 µM; at PI3K δ, under 0.1 µM; at PI3K β (p110β/p85α), under 10 µM; at PI3K γ (p110γ), under 0.1 µM.
As to `Nc1nc2cc(-c3ccc4ncc(C(=O)NC5CCOCC5)n4c3)ccc2o1` [Compound 83], the IC50 is under 0.1 µM at PI3K α (p110α/p85α), under 0.1 µM on PI3K δ, under 10 µM on PI3K β (p110β/p85α) and under 0.1 µM on PI3K γ (p110γ).
For the molecule `CC(C)N1CCN(c2cnc3ccc(-c4ccc5oc(N)nc5c4)cc3n2)CC1` [Compound 84], the IC50 at PI3K α (p110α/p85α) is under 0.1 µM; at PI3K δ it was under 1 µM; on PI3K β (p110β/p85α) it was under 0.1 µM; on PI3K γ (p110γ), under 0.1 µM.
On to `CC(=O)N1CCN(c2cnc3ccc(-c4ccc5oc(N)nc5c4)cc3n2)CC1` [Compound 85], for which the IC50 at PI3K α (p110α/p85α), at PI3K δ, at PI3K β (p110β/p85α) and at PI3K γ (p110γ) was under 0.1 µM throughout.
Regarding `CS(=O)(=O)N1CCN(c2cnc3ccc(-c4ccc5oc(N)nc5c4)cc3n2)CC1` [Compound 86], the IC50 at PI3K α (p110α/p85α) was under 0.1 µM; on PI3K δ, under 1 µM; at PI3K β (p110β/p85α) it was under 1 µM; at PI3K γ (p110γ) it was under 0.1 µM.
With `CS(=O)(=O)N1CCC(Nc2ncnc3ccc(-c4ccc5oc(N)nc5c4)cc23)CC1` [Compound 87], the half-inhibitory concentration (IC50) was under 0.1 µM at PI3K α (p110α/p85α), under 0.1 µM on PI3K δ, under 1 µM at PI3K β (p110β/p85α) and under 0.1 µM on PI3K γ (p110γ).
As for `Nc1nc2cc(-c3ccc4ncc(N5CCNCC5)nc4c3)ccc2o1` [Compound 88], the IC50 on PI3K α (p110α/p85α) is under 0.1 µM; on PI3K δ, under 10 µM; at PI3K β (p110β/p85α), under 0.1 µM; at PI3K γ (p110γ) it was under 1 µM.
Consider `Nc1nc2cc(-c3ccc4ncnc(NC5CCN(C(=O)C6CC6)CC5)c4c3)ccc2o1` [Compound 89], for which the IC50 on PI3K α (p110α/p85α) was under 0.1 µM; on PI3K δ, under 0.1 µM; at PI3K β (p110β/p85α), under 10 µM; on PI3K γ (p110γ), under 0.1 µM.
As for `CS(=O)(=O)CCN1CCN(c2cnc3ccc(-c4ccc5oc(N)nc5c4)cc3n2)CC1` [Compound 90], the IC50 at PI3K α (p110α/p85α) is under 0.1 µM; on PI3K δ, under 10 µM; on PI3K β (p110β/p85α) it was under 1 µM; on PI3K γ (p110γ), under 1 µM.
On to `Cc1nc2ccc(-c3ccc4oc(N)nc4c3)cn2c1C(=O)N1CCN(C)CC1` [Compound 91], for which the IC50 on PI3K α (p110α/p85α), at PI3K δ, on PI3K β (p110β/p85α) and at PI3K γ (p110γ) was over 10 µM in each case.
With `Cc1nc2ccc(-c3ccc4oc(N)nc4c3)cn2c1C(=O)N1CCOCC1` [Compound 92], the IC50 at PI3K α (p110α/p85α), at PI3K δ, on PI3K β (p110β/p85α) and on PI3K γ (p110γ) was over 10 µM in each case.
Consider `CS(=O)(=O)N1CCC(Nc2cnc3ccc(-c4ccc5oc(N)nc5c4)cc3n2)CC1` [Compound 95], for which the IC50 at PI3K α (p110α/p85α) is under 0.1 µM; on PI3K δ it was under 0.1 µM; at PI3K β (p110β/p85α), under 10 µM; at PI3K γ (p110γ), under 0.1 µM.
Regarding `O=C(c1cnc2ccc(-c3cnc4cc[nH]c4c3)cn12)N1CCOCC1` [Compound 534], the IC50 at PI3K δ, at PI3K β (p110β/p85α) and at PI3K γ (p110γ) was over 10 µM in each case.
For the molecule `Cc1ncc(-c2ccc3ncc(C(=O)N4CCOCC4)n3c2)c2cc[nH]c12` [Compound 536], the IC50 at PI3K δ, on PI3K β (p110β/p85α) and at PI3K γ (p110γ) was over 10 µM throughout.
Consider `CC(C)N1CCN(C2CN(c3cnc4ccc(-c5ccc6oc(N)nc6c5)nc4n3)C2)CC1` [Compound 628], for which the IC50 at PI3K δ (Table 4 (PI3K α inhibitors)), at PI3K β (p110β/p85α) (Table 4 (PI3K α inhibitors)) and on PI3K γ (p110γ) (Table 4 (PI3K α inhibitors)) was over 10 µM each time.
